What was measured:
human TLR7 = target: T1, human TLR7 (Homo sapiens, UniProt Q9NYK1); test: HEK-Blue hTLR7 NF-κB/AP-1 SEAP reporter cell assay
T1 sequence (Q9NYK1 27-1049): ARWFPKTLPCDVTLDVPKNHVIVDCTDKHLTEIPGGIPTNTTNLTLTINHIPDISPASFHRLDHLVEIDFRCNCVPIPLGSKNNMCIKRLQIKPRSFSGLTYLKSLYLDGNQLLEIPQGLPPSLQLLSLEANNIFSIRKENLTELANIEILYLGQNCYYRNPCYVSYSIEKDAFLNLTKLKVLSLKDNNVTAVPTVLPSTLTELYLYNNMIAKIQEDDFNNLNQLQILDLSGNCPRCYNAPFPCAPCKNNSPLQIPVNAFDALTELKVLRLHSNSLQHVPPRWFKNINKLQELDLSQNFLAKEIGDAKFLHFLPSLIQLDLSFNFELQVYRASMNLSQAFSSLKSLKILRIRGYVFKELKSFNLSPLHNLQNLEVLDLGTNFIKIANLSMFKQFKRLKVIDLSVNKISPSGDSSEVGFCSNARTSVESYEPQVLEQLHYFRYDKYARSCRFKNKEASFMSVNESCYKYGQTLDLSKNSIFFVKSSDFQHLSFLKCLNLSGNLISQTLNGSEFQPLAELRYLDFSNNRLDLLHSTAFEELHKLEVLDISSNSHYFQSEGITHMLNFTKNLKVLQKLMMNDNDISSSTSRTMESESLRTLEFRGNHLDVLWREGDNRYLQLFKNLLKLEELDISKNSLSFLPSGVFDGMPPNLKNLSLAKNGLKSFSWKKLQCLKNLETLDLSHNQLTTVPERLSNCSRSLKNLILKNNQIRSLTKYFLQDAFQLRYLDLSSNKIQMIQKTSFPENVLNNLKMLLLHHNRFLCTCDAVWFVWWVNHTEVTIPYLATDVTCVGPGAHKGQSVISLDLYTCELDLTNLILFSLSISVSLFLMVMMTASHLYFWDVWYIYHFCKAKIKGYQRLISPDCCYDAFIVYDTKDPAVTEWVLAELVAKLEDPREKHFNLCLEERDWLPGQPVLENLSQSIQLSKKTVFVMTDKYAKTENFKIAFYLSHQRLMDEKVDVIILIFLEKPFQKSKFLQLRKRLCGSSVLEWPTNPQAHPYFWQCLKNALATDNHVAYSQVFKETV

B16-F1 tumor = test: Mouse B16 tumor model, intratumoral injection; type: in vivo, C57BL/6 mice; details: by day 28, 3 intra-tumoral injections, 40 μg in 100 μl
human HEK293 cell line = test: Cell transfection with SEAP plasmid, HEK293; type: cell-based; details: complexed with pVitro14 LGFP SEAP plasmid, HEK293, 48 hours
plasmid DNA = type: physicochemical
[1] = system: mouse B16 melanoma cell line; test: Cell transfection with SEAP plasmid, B16; type: cell-based; details: complexed with pVitro14 LGFP SEAP plasmid, B16, 48 hours

## CCCCNc1nc(N)c2nc(O)n(Cc3ccc(C(=O)NCC(=O)NCCCC[C@H](NCCCP(=O)(OCCC(C)CCCC(C)CCCC(C)CCCC(C)C)OCCC(C)CCCC(C)CCCC(C)CCCC(C)C)C(=O)NCCCNCCCCNCCCN)cc3)c2n1 (stereo in doubt) [CL493, (S)-bis(3,7,11,15-tetramethylhexadecyl) 19-amino-5-(4-(2-(4-((6-amino-2-(butylamino)-8-hydroxy-9H-purin-9-yl)methyl)benzamido)acetamido)butyl)-6-oxo-4,7,11,16-tetraazanonadecylphosphonate]
Human TLR7
  TLR7 activity (NF-κB/AP-1-inducible SEAP reporter): strong and specific TLR7 activity

## CCCCNc1nc(N)c2nc(O)n(Cc3ccc(C(=O)NCCCNCCCCNCCCNCCCP(=O)(OCCC(C)CCCC(C)CCCC(C)CCCC(C)C)OCCC(C)CCCC(C)CCCC(C)CCCC(C)C)cc3)c2n1 (centres unmarked) [CL346, bis(3,7,11,15-tetramethylhexadecyl) 1-(4-((6-amino-2-(butylamino)-8-hydroxy-9H-purin-9-yl)methyl)phenyl)-1-oxo-2,6,11,15-tetraazaoctadecan-18-ylphosphonate]
Human TLR7
  TLR7 activity (NF-κB/AP-1-inducible SEAP reporter): strong and specific TLR7 activity

## CCCCNc1nc(N)c2nc(O)n(Cc3ccc(C(=O)NCC(=O)NCCCNCCCCNCCCNCCCP(=O)(OCCC(C)CCCC(C)CCCC(C)CCCC(C)C)OCCC(C)CCCC(C)CCCC(C)CCCC(C)C)cc3)c2n1 (centres unmarked) [CL347, bis(3,7,11,15-tetramethylhexadecyl) 1-(4-((6-amino-2-(butylamino)-8-hydroxy-9H-purin-9-yl)methyl)phenyl)-1,4-dioxo-2,5,9,14,18-pentaazahenicosan-21-ylphosphonate]
Human TLR7
  TLR7 activity (NF-κB/AP-1-inducible SEAP reporter): strong and specific TLR7 activity
B16-F1 tumor
  survival of mice: no survival

## CCCCCCCCCCCCCCCCOP(=O)(CCCN[C@@H](CCCCNC(=O)CNC(=O)c1ccc(Cn2c(O)nc3c(N)nc(NCCCC)nc32)cc1)C(=O)NCCCNCCCCNCCCN)OCCCCCCCCCCCCCCCC [CL481, (S)-dihexadecyl 19-amino-5-(4-(2-(4-((6-amino-2-(butylamino)-8-hydroxy-9H-purin-9-yl)methyl)benzamido)acetamido)butyl)-6-oxo-4,7,11,16-tetraazanonadecylphosphonate]
Human TLR7
  TLR7 activity (NF-κB/AP-1-inducible SEAP reporter): strong and specific TLR7 activity
Human HEK293 cell line
  transfection (SEAP reporter gene expression): inability to transfect cells
Plasmid DNA
  complex formation with pDNA (retardation of pDNA migration in gel): inability to form complex with plasmid DNA
[1]
  transfection (SEAP reporter gene expression): inability to transfect cells

Reference: patent US9458184B2, “Compositions of TLR7 and/or TLR8 agonists conjugated to lipids” (CAYLA, priority 2012, dated 2016)
